Measured values reported in US12059404B2, “Mesembrenol and/or mesembranol for prophylaxis and treatment of patients suffering from epilepsy and associated diseases” (HG&H Pharmaceuticals (Pty) Ltd, priority 2017, dated 2024).

Key:
[1] = tested on: AMPA mediated transmission; assay: In vitro hippocampus slice population spike with Fluorowillardine alone or together with alkaloids; format: cell-based, rat; conditions: isolated alkaloids; mean of 3 slices; FIG. 7
Description: Four important alkaloids contained in Zembrin® namely, mesembrenone, mesembrenol, mesembrine and mesembranol, were individually isolated. Similar tests to those described in example A were carried out on each of these isolated alkaloids, in the presence of two concentrations in the nanomolar range and the results are illustrated in FIGS. 5 to 7. In FIG. 5, the statistical significance of p<0.01 is marked by stars. In FIG. 6, the statistical significance of p<0.01 is marked by stars. In FIG. 7, mean values of 3 slices are depicted for each recording condition. Statistical significance between Fluorowillardine alone and the presence of the alkaloids is documented by stars. (**=p<0.05; ***=p<0.01).

[2] = tested on: pyramidal cell activity in hippocampus slices; assay: In vitro hippocampus slice population spike in presence of isolated alkaloids; format: cell-based, rat; conditions: for attenuation of population spike amplitude, single shock stimuli / attenuation of population spike amplitude, theta burst stimuli: two concentrations in the nanomolar range; for attenuation of population spike amplitude, single shock stimuli: FIG. 5; for attenuation of population spike amplitude, theta burst stimuli: FIG. 6
Source text: Electric stimulation of Schaffer Collaterals leads to release of glutamate resulting in excitation of the postsynaptic pyramidal cells. The result of the electric stimulation can be recorded as so-called population spike (pop-spike). The amplitude of the resulting population spike represents the number of recruited pyramidal cells. The model of hippocampal pyramidal cell activity reflects the effects of physiological interventions by an increase or decrease of the amplitude of the population spike.
Hippocampus slices were obtained from 19 adult male Sprague-Dawlay rats (Charles River Wiga, Sulzbach, Germany). Rats were kept under a reversed day/night cycle for 2 weeks prior to the start of the experiments to allow recording of in vitro activity from slices during the active phase of their circadian rhythm (Dimpfel, W., Dalhoff, B., Hofmann, W., Schlüter, G. (1994) Electrically evoked potentials in the rat hippocampus slice in the presence of aminophylline alone and in combination with quinolones (European Neuropsychopharmacology, 4, 151-156).
Preparation of the slices was performed exactly as reported earlier (Dimpfel, W. and Hoffmann, J. A. (2011) Effects of rasagiline, its metabolite aminoindan and selegiline on glutamate receptor mediated signalling in the rat hippocampus slice in vitro (BMC Pharmacology, 11, 2)). Animals were exsanguinated under ether anaesthesia; the brain was removed in total and the hippocampal formation was isolated under microstereoscopic sight. The midsection of the hippocampus was fixed to the table of a vibrating microtome (Rhema Labortechnik, Hofheim, Germany) using a cyanoacrylate adhesive, submerged in chilled bicarbonate-buffered saline (artificial cerebrospinal fluid (ACSF): NaCl: 124 mM, KCl: 5 mM, CaCl2: 2 mM, MgSO4: 2 mM, NaHCO3: 26 mM, glucose: 10 mM, and cut into slices of 400μ thickness. All slices were pre-incubated for at least 1 h in Carbogen saturated ACSF (pH 7.4) in a pre-chamber before use (Dimpfel, W., Spüler, M., Dalhoff, A., Hoffmann, W., Schlüter, G. (1991) Hippocampal activity in the presence of quinolones and fenbufen in-vitro (Antimicrobial Agents and Chemotherapy, 35, 1142-1146).
During the experiment the slices were held and treated in a special superfusion chamber (List Electronics, Darmstadt, Germany) according to (Haas, H L., Schaerer, B., Vosmansky, M. (1979). A simple perfusion chamber for the study of nervous tissue slices in vitro (J Neurosci Methods, 1, 323-5), at 35° C. (Schiff, S J., Somjen, G G. (1985) The Effects of Temperature on Synaptic Transmission in Hippocampal Tissue Slices (Brain Research, 345, 279-284)). The preparation was superfused with ACSF at 180-230 ml/h. Electric stimulation (200 μA constant current pulses of 200 μs pulse width) of the Schaffer Collaterals within the […] area and recording of extracellular field potentials from the pyramidal cell layer of CA1 (Dimpfel, W., Spüler, M., Dalhoff, A., Hoffmann, W., Schlüter, G. (1991) Hippocampal activity in the presence of quinolones and fenbufen in-vitro (Antimicrobial Agents and Chemotherapy, 35, 1142-1146).
Measurements were performed at 10 min intervals to avoid potentiation mechanisms. Four stimulations—each 20 seconds apart—were averaged for each time point. After obtaining three stable responses to single stimuli (SS) long-term potentiation was induced by applying a theta burst type pattern (TBS). […]

Compound | interaction with AMPA mediated transmission (population spike with Fluorowillardine alone or with alkaloid) [1] | attenuation of population spike amplitude, single shock stimuli [2] | attenuation of population spike amplitude, theta burst stimuli [2] | concentration exerting a similar extent of attenuation of population spike amplitude ([2]; FIGS. 5 and 6) [nM]
COc1ccc(C23CCC(O)CC2N(C)CC3)cc1OC (stereo not shown) [mesembranol] | interact with AMPA mediated transmission | stronger attenuation | stronger attenuation | 
COc1ccc(C23C=CC(O)CC2N(C)CC3)cc1OC (stereo not shown) [mesembrenol] | interact with AMPA mediated transmission | stronger attenuation | stronger attenuation | 
COc1ccc([C@@]23CCC(=O)C[C@@H]2N(C)CC3)cc1OC [mesembrine, reference compound] |  |  |  | 8.65
